# In EP0776155B1, “DELIVERY OF EXOGENOUS CHEMICAL SUBSTANCES TO PLANT TISSUES” (MONSANTO COMPANY, priority 1994, dated 1996):
# What was measured:
# Format in all cases: in vivo
# [1] = system: velvetleaf (Abutilon theophrasti, ABUTH); test: Example 11: percent control, time between abrasion and glyphosate application varied (hours); conditions: glyphosate rate (kg a.e./ha)
# Protocol: In these Examples illustrative of the invention, velvetleaf (Abutilon theophrasti, ABUTH) seeds were planted in 4-inch (10.1 cm) square pots containing 100% silt loam soil to which 35 grams/cu ft (1.25 kg/m^3) IBDU fertilizer was added, and covered with a mix of 50% Rediearth plus 50% silt loam. The pots were sub-irrigated and the seedlings thinned after emergence to 2 plants per pot.
# Abrasion was applied using propelled 200-mesh garnet exactly as described for Examples 1-9. The herbicide used in these Examples was glyphosate as its isopropylamine salt, applied as diluted MON 2139, exactly as described for Examples 1-9.
# The time period between abrasion and herbicide application was varied as follows. In Example 11, all abrasion treatments were applied within a short period of time, and herbicide applications were made 2, 4 and 24 hours after abrasion. A set of abraded plants received no herbicide at any time. In addition, herbicide applications were made to unabraded plants at two times: (i) at the time of abrasion, and (ii) 24 hours after the time of abrasion. In Example 12, all herbicide applications were made within a short period of time, and abrasion was applied 5, 2 and 1 days before herbicide application. In addition, herbicide application was made to unabraded plants.
# Three replications were performed of every treatment. After treatment, all plants were placed in the greenhouse for the remainder of the experiment, and sub-irrigated. The first replicate was placed in one block in order of the treatment list for ease of viewing and the remaining replicates were randomly placed in two separate blocks.
# After an interval of 12-14 days after herbicide application, a visual evaluation was performed to estimate herbicidal efficacy as percent control of treated plants compared to untreated check plants.
# [2] = system: common lambsquarter (Chenopodium album, CHEAL); test: Example 46: percent control, various propelled particulate abrasives, glyphosate spray; conditions: glyphosate 0.11 kg a.e./ha, 200-mesh
# Protocol: (§1) In this Example illustrative of the invention, common lambsquarter (Chenopodium album, CHEAL) seeds were planted in 4-inch (10.1-cm) square pots filled with a soil mix consisting of 50% Metromix 350 plus 50% silt loam to which 100 g/cu ft (3.57 kg/m^3) Osmocote fertilizer were added, and the seeds were covered with the same soil mix without added fertilizer. […] The same settings were maintained before and after treatment.
# Physical injury in this Example was inflicted on the above-ground portions of the plants, approximately 2 weeks after planting, by various propelled particulate abrasives. This was applied using the same sandblaster as used in Example 47. For this Example, air pressure was maintained at 40 lb/sq inch (276 kiloPascals), the nozzle was set 16 inches (41 cm) above the plant canopy, track speed was under 1 mile/hour (1.6 km/hr) and one pass was made with the sandblaster. […] Some plants received no abrasion.
# Materials used as abrasive agents in this study were: • garnet, 200-mesh as used in Example 47 • glass cullet, 1040 supplied by Universal • glass cullet, 1035 supplied by Universal • aluminum oxide type B, 120-mesh • white silica sand, 1.0 profile size, supplied by Unimin • glass beads, 140-270 mesh • Scott's Lawn & Garden fertilizer granules ground to a fine powder using a Retsch 2M-1 mill
# (§2) Plants were then assigned to different herbicide treatments in a factorial experimental design with 2 replications. All plants for each herbicide treatment were sprayed at the same time using a track sprayer calibrated to deliver 20 gallons/acre (187 liters/hectare) water with an 8002E nozzle having a 50-mesh screen, 16 inches (41 cm) above the plant canopy. In these Examples the herbicide used was glyphosate as its isopropylamine salt, in the form of the aqueous concentrate formulation MON 2139 of Monsanto Company. Spray solutions were made from stock solutions prepared by dilution of MON 2139 in water.
# After an interval of 12 days, a visual evaluation was performed to estimate herbicidal efficacy as percent control of treated plants compared to untreated check plants.
# [3] = system: velvetleaf (Abutilon theophrasti, ABUTH); test: Example 50: percent control, KOH chemical corrosive or garnet abrasion then glyphosate spray; conditions: 11 days after glyphosate application
# Protocol: as §1, with “velvetleaf (Abutilon theophrasti, ABUTH)” for “common lambsquarter (Chenopodium album, CHEAL)”, “loam soil” for “loam”
# Physical injury in this Example was inflicted on the above-ground portions of the plants, 17 days after planting, by a propelled chemical corrosive, a 2.5% weight/weight aqueous potassium hydroxide (KOH) solution. This solution was applied using a track sprayer calibrated to deliver 20 gallons/acre (187 liters/ha) with an 8002E nozzle having a 50-mesh screen, 16 inches (41 cm) above the plant canopy. Plants were allowed to dry for 1 hour after KOH treatment. Other plants received injury by abrasion using a hand-held Sears Craftsman™ sandblaster as described in Examples 1-9. A third set of plants received no abrasion or corrosion with KOH.
# as §2, with “with 3” for “with 2”, “(187 liters/ha)” for “(187 liters/hectare)”
# After an interval of 11 days, a visual evaluation was performed to estimate herbicidal efficacy as percent control of treated plants compared to untreated check plants.
structure (smiles),measurement,setting,value
"O=C(O)CNCP(=O)(O)O [glyphosate, N-phosphonomethylglycine]",percent control of ABUTH 14 days after glyphosate application,"[1]; abraded before 0 h, glyphosate 0.056 kg a.e./ha",70%
same,percent control of ABUTH 14 days after glyphosate application,"[1]; abraded before 0 h, glyphosate 0.11 kg a.e./ha",78%
same,percent control of ABUTH 14 days after glyphosate application,"[1]; abraded before 2 h, glyphosate 0.056 kg a.e./ha",73%
same,percent control of ABUTH 14 days after glyphosate application,"[1]; abraded before 2 h, glyphosate 0.11 kg a.e./ha",85%
same,percent control of ABUTH 14 days after glyphosate application,"[1]; abraded before 4 h, glyphosate 0.056 kg a.e./ha",79%
same,percent control of ABUTH 14 days after glyphosate application,"[1]; abraded before 4 h, glyphosate 0.11 kg a.e./ha",94%
same,percent control of ABUTH 14 days after glyphosate application,"[1]; abraded before 24 h, glyphosate 0.056 kg a.e./ha",45%
same,percent control of ABUTH 14 days after glyphosate application,"[1]; abraded before 24 h, glyphosate 0.11 kg a.e./ha",76%
same,percent control of CHEAL 12 days after glyphosate application,"[2]; aluminum oxide, abrasive rate* (kg/ha) 143, calculated based on garnet",46%
same,percent control of CHEAL 12 days after glyphosate application,"[2]; aluminum oxide, abrasive rate* (kg/ha) 256, calculated based on garnet",50%
same,percent control of CHEAL 12 days after glyphosate application,"[2]; fertilizer, abrasive rate* (kg/ha) 143, calculated based on garnet",25%
same,percent control of CHEAL 12 days after glyphosate application,"[2]; fertilizer, abrasive rate* (kg/ha) 256, calculated based on garnet",34%
same,percent control of CHEAL 12 days after glyphosate application,"[2]; garnet, abrasive rate* (kg/ha) 143",52%
same,percent control of CHEAL 12 days after glyphosate application,"[2]; garnet, abrasive rate* (kg/ha) 256",37%
same,percent control of CHEAL 12 days after glyphosate application,"[2]; glass beads, abrasive rate* (kg/ha) 143, calculated based on garnet",62%
same,percent control of CHEAL 12 days after glyphosate application,"[2]; glass beads, abrasive rate* (kg/ha) 256, calculated based on garnet",43%
same,percent control of CHEAL 12 days after glyphosate application,"[2]; glass cullet, 1035, abrasive rate* (kg/ha) 143, calculated based on garnet",28%
same,percent control of CHEAL 12 days after glyphosate application,"[2]; glass cullet, 1035, abrasive rate* (kg/ha) 256, calculated based on garnet",48%
same,percent control of CHEAL 12 days after glyphosate application,"[2]; glass cullet, 1040, abrasive rate* (kg/ha) 143, calculated based on garnet",38%
same,percent control of CHEAL 12 days after glyphosate application,"[2]; glass cullet, 1040, abrasive rate* (kg/ha) 256, calculated based on garnet",20%
same,percent control of CHEAL 12 days after glyphosate application,"[2]; white silica sand, abrasive rate* (kg/ha) 143, calculated based on garnet",38%
same,percent control of CHEAL 12 days after glyphosate application,"[2]; white silica sand, abrasive rate* (kg/ha) 256, calculated based on garnet",50%
same,percent control of ABUTH,"[3]; glyphosate rate 0.0140 kg a.e./ha, injury by abrasion",30%
same,percent control of ABUTH,"[3]; glyphosate rate 0.0140 kg a.e./ha, injury by corrosion (KOH)",7%
same,percent control of ABUTH,"[3]; glyphosate rate 0.0140 kg a.e./ha, no physical injury",0%
same,percent control of ABUTH,"[3]; glyphosate rate 0.028 kg a.e./ha, injury by abrasion",70%
same,percent control of ABUTH,"[3]; glyphosate rate 0.028 kg a.e./ha, injury by corrosion (KOH)",13%
same,percent control of ABUTH,"[3]; glyphosate rate 0.028 kg a.e./ha, no physical injury",0%
same,percent control of ABUTH,"[3]; glyphosate rate 0.056 kg a.e./ha, injury by abrasion",75%
same,percent control of ABUTH,"[3]; glyphosate rate 0.056 kg a.e./ha, injury by corrosion (KOH)",48%
same,percent control of ABUTH,"[3]; glyphosate rate 0.056 kg a.e./ha, no physical injury",3%
same,percent control of ABUTH,"[3]; glyphosate rate 0.11 kg a.e./ha, injury by abrasion",83%
same,percent control of ABUTH,"[3]; glyphosate rate 0.11 kg a.e./ha, injury by corrosion (KOH)",73%
same,percent control of ABUTH,"[3]; glyphosate rate 0.11 kg a.e./ha, no physical injury",0%
same,percent control of ABUTH,"[3]; glyphosate rate 0.22 kg a.e./ha, injury by abrasion",96%
same,percent control of ABUTH,"[3]; glyphosate rate 0.22 kg a.e./ha, injury by corrosion (KOH)",85%
same,percent control of ABUTH,"[3]; glyphosate rate 0.22 kg a.e./ha, no physical injury",81%
same,percent control of ABUTH,"[3]; glyphosate rate 0.45 kg a.e./ha, injury by abrasion",99%
same,percent control of ABUTH,"[3]; glyphosate rate 0.45 kg a.e./ha, injury by corrosion (KOH)",91%
same,percent control of ABUTH,"[3]; glyphosate rate 0.45 kg a.e./ha, no physical injury",87%
same,percent control of ABUTH,"[3]; glyphosate rate 0.89 kg a.e./ha, no physical injury",100%
